# Measured values as given in ChEMBL document CHEMBL5390238, “The mechanisms of multidrug resistance of breast cancer and research progress on related reversal agents” (Bioorg Med Chem, 2023).
# Tests used:
# [1] = Antiproliferative activity against human MCF7/BUS cells assessed as cell growth inhibition incubated for 6 days by MTT assay; format: functional, cell-based; details: 144 h
# Estrogen receptor = target: T1, Estrogen receptor (Homo sapiens, UniProt P03372); assay: Inhibition of human ERalpha expressed in Saccharomyces cerevisiae co-expressing lacZ using CPRG as substrate incubated for 48 hrs by Colorimetric assay
# T1 sequence (P03372 whole entry): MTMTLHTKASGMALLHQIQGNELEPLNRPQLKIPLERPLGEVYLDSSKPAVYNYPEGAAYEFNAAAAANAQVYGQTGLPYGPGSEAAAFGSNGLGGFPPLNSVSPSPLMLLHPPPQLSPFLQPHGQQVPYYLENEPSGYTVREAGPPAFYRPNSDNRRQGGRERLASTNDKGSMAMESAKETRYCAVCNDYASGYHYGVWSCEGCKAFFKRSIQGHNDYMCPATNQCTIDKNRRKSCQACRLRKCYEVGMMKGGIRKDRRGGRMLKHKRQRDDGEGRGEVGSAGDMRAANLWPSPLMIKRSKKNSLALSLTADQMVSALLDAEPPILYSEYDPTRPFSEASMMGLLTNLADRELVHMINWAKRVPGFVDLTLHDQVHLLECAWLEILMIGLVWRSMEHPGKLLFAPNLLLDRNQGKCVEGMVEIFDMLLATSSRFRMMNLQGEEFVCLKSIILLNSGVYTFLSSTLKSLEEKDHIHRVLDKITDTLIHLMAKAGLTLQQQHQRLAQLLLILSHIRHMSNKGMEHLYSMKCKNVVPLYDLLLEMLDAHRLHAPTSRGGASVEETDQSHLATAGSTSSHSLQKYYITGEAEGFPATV
# MCF7 [2] = assay: Cytotoxicity against human MCF7 cells assessed as inhibition of cell growth in presence of paclitaxel by MTT assay; format: functional, cell-based
# MDA-MB-231 = assay: Antiproliferative activity against human MDA-MB-231 cells assessed as cell growth inhibition; format: functional
# MCF7 [3] = assay: Antiproliferative activity against human MCF-7 cells assessed as cell growth inhibition; format: functional
# MCF7 [4] = assay: Antiproliferative activity against human MCF-7 cells assessed as inhibition of cell growth incubated for 48 hrs by MTT assay; format: functional, cell-based; details: MCF7, 48 h
# NCI/ADR-RES = assay: Cytotoxicity against human MCF7ADR cells; format: functional, cell-based
# [5] = Cytotoxicity against human RL14 cells incubated for 72 hrs by resazurin blue assay; format: toxicity, cell-based
# HeLa = assay: Antiproliferative activity against human HeLa cells assessed as inhibition of cell growth incubated for 72 hrs by MTT assay; format: functional, cell-based
# HepG2 = assay: Antiproliferative activity against human HepG2 cells assessed as inhibition of cell growth incubated for 48 hrs by MTT assay; format: functional, cell-based; details: HepG2, 48 h
# HCT-116 = assay: Cytotoxicity against human HCT-116 cells assessed as cell viability measured as mitochondrial NADH-dependent dehydrogenase activity incubated for 72 to 120 hrs; format: functional, cell-based
# [6] = Antiproliferative activity against multidrug resistant human MDA-MB-231/TxR cells assessed as inhibition of cell growth preincubated for 24 hrs followed by taxol treatment for 24 hrs by MTT assay; format: functional, cell-based
# HaCaT = assay: Cytotoxicity against human HaCaT cells incubated for 72 hrs by MTT assay; format: functional, cell-based
# MCF7 [7] = assay: Cytotoxicity against human MCF7 cells; format: functional, cell-based
compound,measurement,setting,value
CCC(Cc1ccc(OC)cc1)=C(c1ccc(O)cc1)c1ccc(OCCCN(C)C)cc1,IC50,[1],0.096 µM
same,IC50,Estrogen receptor,0.51 µM
COc1cc(/C=C/C(=O)CC(=O)/C=C/c2ccc(O)c(OC)c2)ccc1O [CURCUMIN],IC50,MCF7 [2],0.088 µM
CCC(Cc1ccccc1)=C(c1ccc(OCCN2CCCC2)cc1)c1ccc(OC(=O)NCc2ccccc2)cc1,GI50,MDA-MB-231,1.84 µM
same,GI50,MCF7 [3],0.09 µM
CCNCc1ccccc1[Se][Se]c1ccccc1CNCC,IC50,MCF7 [4],0.015 µM
O=c1cc(-c2ccc(O)cc2)oc2cc(O)cc(O)c12 [APIGENIN],IC50,NCI/ADR-RES,0.2 µM
COc1cccc2c1C(=O)c1c(O)c3c(c(O)c1C2=O)C[C@@](O)(C(=O)CO)C[C@@H]3O[C@H]1C[C@H](NC(=O)CNC(=O)Oc2ccc(C3=C(O)C(=O)C4C(O)=CC(O)=CC4O3)cc2O)[C@H](O)[C@H](C)O1 (stereo partly specified),IC50 at 72 h,[5],0.005 µM
Cc1nc(C)c(COC(=O)[C@]23CCC(C)(C)C[C@H]2C2=CC[C@@H]4[C@@]5(C)CC[C@H](OC(=O)CN)C(C)(C)[C@@H]5CC[C@@]4(C)[C@]2(C)CC3)nc1C,IC50,HeLa,3.2 µM
COc1cc([C@H]2OC[C@H]3[C@@H]2CO[C@@H]3c2ccc(O)c(OC)c2)ccc1O,IC50,HepG2,0.051 µM
CC/C(=C(\c1ccccc1)c1ccc(OCCN(C)C)cc1)c1ccccc1 [TAMOXIFEN],IC50,[1],0.503 µM
COc1ccc(/C(C#N)=C/c2ccc(N3CCC(O)CC3)s2)cc1OC,IC50,HCT-116,0.01 µM
CC(C)=CCC[C@@H](C(=O)O)[C@H]1CC[C@@]2(C)C3=C(CC[C@]12C)[C@@]1(C)CC[C@H](O)C(C)(C)[C@@H]1CC3 [TRAMETENOLIC ACID],IC50,[6],0.102 µM
COc1cc(/C=C/c2ccc(SC)cc2)cc(OC)c1,IC50,HaCaT,25.3 µM
Oc1ccc(/C=C/c2cc(O)cc(O)c2)cc1 [RESVERATROL],IC50,HaCaT,183 µM
CO[C@]1(CC[C@H](C)CO[C@@H]2O[C@H](CO)[C@@H](O)[C@H](O)[C@H]2O)O[C@H]2C[C@H]3[C@@H]4CC[C@@H]5C[C@@H](O[C@@H]6O[C@H](CO)[C@H](O[C@@H]7O[C@H](CO)[C@@H](O)[C@H](O[C@@H]8OC[C@@H](O)[C@H](O)[C@H]8O)[C@H]7O[C@@H]7O[C@H](CO)[C@H](O)[C@H](O)[C@H]7O)[C@H](O)[C@H]6O)CC[C@]5(C)[C@H]4CC[C@]3(C)[C@H]2[C@@H]1C,IC50,MCF7 [7],0.0052 µM
